Experimental data as given in paper PMC6581923 (Journal of Molecular Neuroscience, 2018).

Assays:
PAC1-R = target: T1, PAC1-R (Homo sapiens, UniProt P41586); assay: cAMP accumulation assay in PAC1-CHO cells; format: cell-based
T1 construct: expressed in transfected cells; host or cells: PAC1-CHO cells (CHO cells expressing PAC1-R); That they are transfected is inferred from the cell line's name
T1 sequence (P41586 21-468): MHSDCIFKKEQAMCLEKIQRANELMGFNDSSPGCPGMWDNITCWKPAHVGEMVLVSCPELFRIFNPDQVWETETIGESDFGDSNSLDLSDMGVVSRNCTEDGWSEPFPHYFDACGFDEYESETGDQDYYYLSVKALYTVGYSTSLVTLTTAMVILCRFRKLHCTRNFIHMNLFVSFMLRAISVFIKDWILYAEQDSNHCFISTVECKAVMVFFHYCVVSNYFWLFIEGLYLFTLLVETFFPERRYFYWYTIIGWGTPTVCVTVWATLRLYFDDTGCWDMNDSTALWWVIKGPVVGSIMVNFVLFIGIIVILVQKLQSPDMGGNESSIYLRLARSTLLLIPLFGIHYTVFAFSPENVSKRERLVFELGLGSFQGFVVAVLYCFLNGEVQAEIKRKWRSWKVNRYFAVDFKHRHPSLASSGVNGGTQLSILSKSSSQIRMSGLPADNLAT
Experimental: PAC1-CHO cells cultured in Dulbecco’s Modified Eagle’s Medium (DMEM) at 37 °C were scraped off the surface with rubber policeman, washed twice with PBS and the density of the cells was adjusted to 2 × 10^6 /mL. Peptides were added to 500 uL cells suspension with the corresponding varying working concentrations of the detected factor. After incubation at 37 °C for 5-10 min cells were harvested and the lysates were subjected to cAMP quantification using the enzyme immunoassay kit for cAMP (Biyuntian, Shanghai, China), following the manufacturer’s instructions. Protein concentration of each sample was determined using BCA assay, and the cAMP level of each sample was calculated following the formula: cAMP level (pmol/mg protein) = cAMP concentration (pmol/mL)/protein concentration (mg/mL). The cAMP level in each sample was plotted as the percentage (%) of the maximal cAMP level in cells treated with PACAP27 versus the logarithmic value of the peptide concentrations. All experiments were run with at least four parallel samples and were repeated three times.
The data are means ± SEM of four experiments

[1] = Efficiency of Traversing Eye to Retina (EtE) of FITC labeled peptides given in eye drops; format: in vivo, rat (male)
Experimental: In order to trace the drugs, peptides were labeled with fluorescein isothiocyanate (FITC) using a FITC Protein Labeling Kit from ChangRu Biotech Ltd. (Guangzhou, China) according to the manufacturer’s protocol. After the labeling reaction, gel filtration was used to remove the free FITC. In order to determine the amount of the residual free FITC, the peptides were submitted to ultrafiltration using Amicon Ultra – 0.5 mL (Millipore, USA) with a molecular sieve of 2000 Da. After centrifugation (1000×g, 10 min) the peptide was subjected to fluorescence measurements performed with the multi-wavelength scanner Victor 3 (GE, USA) at the excitation of 495 nm and the emission of 520 nm. Protein concentrations were determined using the K4000 Bradford Protein Quantification Kit (Innovative, Guangzhou, China). The labeling efficiency was calculated using the following formula: label efficiency (LE) = fluorescence value (FV)/peptide mass (mol) (PM), representing the fluorescence intensity (AU) per mol of peptide (mol).
Male rats with body weight from 160 to 180 g were purchased from the Medical and Experimental Animal Center (Guangdong, China). Rats were randomly assigned to one of the experimental groups (7 rats per group) and subjected to eye drops with FITC labeled peptides (100 nmol/kg) and PBS as control. Rats were sacrificed by anesthesia 2 h after the eye drop administration and the retina was separated, weighed, washed three times with PBS and divided into two parts. One part was prepared on the glass slide with glycerin and subjected to fluorescence microscopic observation of FITC with 495 nm excitation/520 nm emission. All images, focused on the left upper regions of the retina, were taken with 500 ms exposure time. The other part of the retina was subjected to grinding and ultrasonication in PBS at a concentration of 100 mg weight tissue per milliliter of PBS. The supernatant was collected by centrifugation and the fluorescence intensity in the supernatant (100 uL) was determined. The valid fluorescence intensity (FI) for each sample treated with FITC labeled peptide was corrected by subtracting the fluorescence value of the sample treated with PBS, which was used as a blank background. The Efficiency of Traversing Eye to Retina (EtE) was expressed as the percentages of the FITC labeled peptide mass in the retina to the total FITC labeled peptide mass. The EtE was calculated using the following formula: EtE = tFI/LE/PW × 100% (tFI presents the fluorescence intensity of retina (arbitration unit, AU); LE presents the label efficiency of each peptide which has been determined above; PW presents the peptide mass (mole)).
Fig. 1 The efficiency of FITC labeled PACAP/PACAP-TAT (a, b) and VIP/VIP-TAT (c, d) traversing to retina given in eye drops. The retina was separated 2 h after the eye drops and submitted to the fluorescence microscopic observation of FITC fluorescence signal (A, C) and the calculation of Efficiency of Traversing Eye to Retina (EtE) (b, d). The data are means ± SEM of four experiments

CC[C@H](C)[C@H](NC(=O)[C@H](CO)NC(=O)[C@H](CC(N)=O)NC(=O)[C@H](CC(C)C)NC(=O)[C@H](Cc1ccc(O)cc1)NC(=O)[C@H](CCCCN)NC(=O)[C@H](CCCCN)NC(=O)[C@@H](NC(=O)[C@H](C)NC(=O)[C@H](CCSC)NC(=O)[C@H](CCC(N)=O)NC(=O)[C@H](CCCCN)NC(=O)[C@H](CCCNC(=N)N)NC(=O)[C@H](CC(C)C)NC(=O)[C@H](CCCNC(=N)N)NC(=O)[C@@H](NC(=O)[C@H](Cc1ccc(O)cc1)NC(=O)[C@H](CC(N)=O)NC(=O)[C@H](CC(=O)O)NC(=O)[C@@H](NC(=O)[C@H](Cc1ccccc1)NC(=O)[C@@H](NC(=O)[C@H](C)NC(=O)[C@H](CC(=O)O)NC(=O)[C@H](CO)NC(=O)[C@@H](N)Cc1c[nH]cn1)C(C)C)[C@@H](C)O)[C@@H](C)O)C(C)C)C(=O)N[C@@H](CC(C)C)C(=O)N[C@@H](CC(N)=O)C(=O)NCC(=O)N[C@@H](CCCNC(=N)N)C(=O)N[C@@H](CCCCN)C(=O)N[C@@H](CCCCN)C(=O)N[C@@H](CCCNC(=N)N)C(=O)N[C@@H](CCCNC(=N)N)C(=O)N[C@@H](CCC(N)=O)C(=O)N[C@@H](CCCNC(=N)N)C(=O)N[C@@H](CCCNC(=N)N)C(=O)N[C@@H](CCCNC(=N)N)C(=O)N1CCC[C@H]1C(=O)N[C@@H](CCC(N)=O)C(=O)O [VIP-TAT]
EC50 as fraction of the EC50 of VIP (PAC1-R; VIP-TAT vs VIP): about 1/200 | Effect of TAT-tagging on activation of PAC1-R (cAMP), in words (PAC1-R; tagged vs untagged peptide): enhanced the activity of VIP on the activation of PAC1-R | Efficiency of Traversing Eye to Retina (EtE) ([1]; FITC labeled peptides, eye drops 100 nmol/kg, retina separated 2 h after, fluorescence 495 nm excitation/520 nm emission, % of FITC labeled peptide mass in retina to total, means ± SEM of four experiments (7 rats per group)): 3.05 ± 0.58% | EtE relative to the untagged peptide ([1]; PACAP-TAT/VIP-TAT vs PACAP/VIP, respectively, eye drops 100 nmol/kg, 2 h): about three-fold that of PACAP/VIP | FITC fluorescence density per area unit in the retina ([1]; fluorescence microscopy of retina 2 h after eye drops of FITC labeled peptides (100 nmol/kg), vs PACAP/VIP): much higher than in retinas treated with eye drops of PACAP/VIP
